# Reference: patent US20240408223A1 (REGENERON PHARMACEUTICALS, INC., priority 2017, published 2024)
# Read-outs that look alike come from different tables or passages of the source. *1 amine or outer side, *2 acyl side, *3 side chain or, on linkers, in order; H or OH if unused. Where a SMILES comes first, the peptide text is derived from it. [ ]: non-standard residue; d: D form. The star is where a group is joined. X4 = C[N+](C)(C)CCNC(=O)CCOCCOCCOCCOCCn1nnc2c1CCCCCC2OCC(=O)*; Dolaproine = CO[C@@H]([C@@H]1CCCN1)[C@@H](C)C(=O)O; Dil = CC[C@H](C)[C@H](NC)[C@@H](CC(=O)O)OC; PABC = O=C(OCc1ccc(N[*:1])cc1)[*:2]; DBCO = C1#Cc2ccccc2N(*)Cc2ccccc21; X1 = C[C@@H](N*)[C@@H](O)c1ccccc1; Cit = NC(=O)NCCC[C@H](N)C(=O)O; PEG4 = NCCOCCOCCOCCOCCC(=O)O; Suc = O=C(CCC(=O)[*:2])[*:1]; NMeV = CN[C@H](C(=O)O)C(C)C
# What was measured:
# [1] = pH stability in buffers, determined by LC-MS; format: physicochemical; conditions: pH7.4 and 8 buffer, RT, Table 3-1
# Procedure: pH stability was assessed as follows. 0.1 mg of sample was dissolved into 0.2-0.3 mL of DMSO, and the resulting solution was added dropwise into different pH buffers (1 mL) while maintain clear solutions during testing time period. The samples were collected from several time points (e.g., over 72 hours), and pH stability was determined by LC-MS. pH buffer was prepared as follows: pH 8.0 sodium borate buffer: Add 9.534 g Sodium borate decahydrate, 1.461 g Sodium chloride, and 0.393 g DTPA to 900 mL distilled water, make sure all powers dissolve completely, then make final volume to 1 L by adding water. pH 7.4 sodium borate buffer: Add […], 9.534 g Sodium borate decahydrate, 1.461 g Sodium chloride, and 0.393 g DTPA to 900 mL distilled water, make sure all powers dissolve completely, then make final volume to 1 L by adding water. pH 5.0 succinate acid buffer: Add 10 mM succinate acid to 150 mL distilled water, and then change the pH to pH5.0 by adding 0.5M NaOH, then make final volume to 250 mL by adding water. pH 7.4 PBS buffer: commercially available. Stability was assessed at 72 hours by LCMS.
# Human liver Cathepsin B = Human liver Cathepsin B (Homo sapiens, UniProt P07858); assay: Cathepsin B cleavage assay of linker-payloads
# Procedure: For the assay, the linker-payload stock solution (10 mM of linker-payload in DMSO) was added into a solution of 100 mM NaOAc, 10 mM dithiothreitol, at pH5 to obtain a 50 μM substrate solution. […] The Cathepsin B and substrate solution was mixed with and without 10 mM of a Cathepsin B inhibitor (CA074; APE Bio, Cat #A1926), and incubated at 37° C. for 4 hours. Following the 4 hour incubation, acetic acid and then acetonitrile were added to stop the reaction. The quenched samples then underwent centrifugation at 14,000 rpm. Aliquots of the resultant supernatants were then diluted with equal volume of water and analyzed by LC/MS to determine the amount of payload released.
# [2] = Solubility test in water, LCMS against standard curve
# Procedure: The DMSO solution (1 mg/mL, 0.5 mL) was diluted with water (4.5 mL) to generate solution A (0.1 mg/mL, 5 mL, 0.5 mg). Solution A (0.1 mg/mL, 0.5 mL) was diluted with water (4.5 mL) to generate solution B (0.01 mg/mL, 5 mL, 0.05 mg). Solution B (0.01 mg/mL, 0.5 mL) was diluted with water (4.5 mL) to generate solution C (1 μg/mL, 5 mL, 5 μg). Solution C (1 μg/mL, 0.5 mL) was diluted with water (4.5 mL) to generate solution D (0.1 μg/mL, 5 mL, 0.5 μg). The testing sample (0.05 mg) was suspended in water (1 mL), and was sonicated for 5-30 min to dissolve the sample. If no clear solution was observed, the resulting suspension was centrifuged and the clear supernatant solution was collected for analysis. All the standard solutions A, B, C, D and sample solutions were tested using same method on the same LC-MS instrument. Solubility was assessed by LCMS and calculated based on a standard curve.
SMILES,pH Stability [1],CapB cleavage rate (%) at 4 hrs (Human liver Cathepsin B; Table 1D),solubility [2],CapB cleavage rate (%) at 4 hrs (Human liver Cathepsin B; Table 1C),"solubility ([2]; Solubility (mg/mL), in water, Table 3-1)"
CC(C)[C@H](NC(=O)[C@@H](CCCCNC(=O)COC1CCCCCc2c1nnn2CCOCCOCCOCCOCCC(=O)NCCS(=O)(=O)O)NC(=O)CCOCCOCCOCCOCCNC(=O)CCC(=O)N1Cc2ccccc2C#Cc2ccccc21)C(=O)N[C@@H](CCCNC(N)=O)C(=O)Nc1ccc(COC(=O)N[C@@H](CO)C(=O)Nc2ccc3c(c2)[C@@]2(C)CCC[C@](C)(C(=O)NC(=O)[C@@]4(C)CCC[C@]5(C)c6cc(O)ccc6CC[C@@H]45)[C@@H]2CC3)cc1 (some centres unmarked) [1q],Y (stable in pH7.4 and 8 buffer at RT for more than 3 days),30.4%,170 µg/mL,–,–
CC(C)[C@H](NC(=O)[C@@H](CCCCNC(=O)COC1CCCCCc2c1nnn2CCOCCOCCOCCOCCC(=O)NCCS(=O)(=O)O)NC(=O)CCOCCOCCOCCOCCNC(=O)CCC(=O)N1Cc2ccccc2C#Cc2ccccc21)C(=O)N[C@@H](C)C(=O)Nc1ccc2c(c1)[C@@]1(C)CCC[C@](C)(C(=O)NC(=O)[C@@]3(C)CCC[C@]4(C)c5cc(O)ccc5CC[C@@H]34)[C@@H]1CC2 (some centres unmarked) [1m],–,44.2%,–,44.2%,–
CC[C@H](C)[C@@H]([C@@H](CC(=O)N1CCC[C@H]1[C@H](OC)[C@@H](C)C(=O)N[C@H](C)[C@@H](O)c1ccccc1)OC)N(C)C(=O)[C@@H](NC(=O)[C@H](C(C)C)N(C)C(=O)OCc1ccc(NC(=O)[C@H](CCCNC(N)=O)NC(=O)[C@@H](NC(=O)[C@@H](CCCCNC(=O)COC2CCCCCc3c2nnn3CCOCCOCCOCCOCCC(=O)NCC[N+](C)(C)C)NC(=O)CCOCCOCCOCCOCCNC(=O)CCC(=O)N2Cc3ccccc3C#Cc3ccccc32)C(C)C)cc1)C(C)C (some centres unmarked) [Ib] ({DBCO-Suc-PEG4}-[dK](X4)V[Cit][PABC][NMeV]V[Dil][Dolaproine]-X1),–,65%,–,–,–
CCCC1O[C@@H]2C[C@H]3[C@@H]4C[C@H](F)C5=CC(=O)C=C[C@]5(C)[C@@]4(F)[C@@H](O)C[C@]3(C)[C@]2(C(=O)CNC(=O)OCc2ccc(NC(=O)[C@H](CCCNC(N)=O)NC(=O)[C@@H](NC(=O)[C@@H](CCCCNC(=O)COC3CCCCCc4c3nnn4CCN(CC(=O)NCCS(=O)(=O)O)CC(=O)NCCS(=O)(=O)O)NC(=O)CCOCCOCCOCCOCCNC(=O)CCC(=O)N3Cc4ccccc4C#Cc4ccccc43)C(C)C)cc2)O1 (some centres unmarked) [1f],–,63.0%,–,63.0%,–
CCCC1O[C@@H]2C[C@H]3[C@@H]4C[C@H](F)C5=CC(=O)C=C[C@]5(C)[C@@]4(F)[C@@H](O)C[C@]3(C)[C@]2(C(=O)COc2ccc(NC(=O)OCc3ccc(NC(=O)[C@H](CCCNC(N)=O)NC(=O)[C@@H](NC(=O)[C@@H](CCCCNC(=O)COC4CCCCCc5c4nnn5CCOCCOCCOCCOCCC(=O)NCC[N+](C)(C)C)NC(=O)CCOCCOCCOCCOCCNC(=O)OC[C@@H]4[C@@H]5CCC#CCC[C@@H]54)C(C)C)cc3)cc2)O1 (some centres unmarked) [IIIe],Y (stable in pH7.4 and 8 buffer at RT for more than 3 days),–,–,–,> 10000 µg/mL
"CC(C)[C@H](NC(=O)CCOCCOCCOCCOCCNC(=O)CCC(=O)N1Cc2ccccc2C#Cc2ccccc21)C(=O)N[C@@H](C)C(=O)Nc1ccc2c(c1)[C@@]1(C)CCC[C@](C)(C(=O)NC(=O)[C@@]3(C)CCC[C@]4(C)c5cc(O)ccc5CC[C@@H]34)[C@@H]1CC2 [10b, 1-(4-{2-Azatricyclo[10.4.0.0^4,9]hexadeca-1(12),4(9),5,7,13,15-hexaen-10-yn-2-yl}-4-oxobutanamido)-N-[(1 S)-1-{[(1 S)-1-{[(4bS,8S,8aR)-8-{[(1 S,4aS,10aR)-6-hydroxy-1,4a-dimethyl-1,2,3,4,4a,9,10,10a-octahydrophenanthrene-1-carbonyl]carbamoyl}-4b,8-dimethyl-4b,5,6,7,8,8a,9,10-octahydrophenanthren-3-yl]carbamoyl}ethyl]carbamoyl}-2-methylpropyl]-3,6,9,12-tetraoxapentadecan-15-amide]",–,–,< 100 µg/mL,–,–
